In ChEMBL document CHEMBL1128388, “Ocular delivery of the beta-adrenergic antagonist alprenolol by sequential bioactivation of its methoxime analogue” (J Med Chem, 1995):
The source made the active and inactive calls. No cut-off for these calls is given here.

Legend:
[1] = tested on: Oryctolagus cuniculus; assay: Average IOP after administration was determined; assay type: functional
[2] = tested on: Oryctolagus cuniculus; assay: Compound was tested for decrease in IOP for 2-3 h (in vivo); Significant reduction was observed; assay type: functional, organism-based
[3] = Time within which only 10% of the drug was degraded; assay type: ADME; details: pH 4.50, room temperature
[4] = tested on: Oryctolagus cuniculus; assay: Compound was tested for decrease in IOP (in vivo); 18% reduction of the control 21.4+/-0.3 mmHg; assay type: functional

Row | Compound | Average IOP [1] | Activity [2] | t0.9 [3] | Activity [4]
1 | C=CCc1ccccc1OCC(O)CNC(C)C (configuration not stated) [ALPRENOLOL] | 20.6 mmHg | Active | – | –
2 | C=CCc1ccccc1OC/C(CNC(C)C)=N\O | 21.8 mmHg | – | 44 days | –
3 | C=CCc1ccccc1OC/C(CNC(C)C)=N\OC | 21.4 mmHg | – | 75 days | 3.8 mmHg
